In patent US20250099448A1, “HETEROCYCLIC COMPOUNDS” (Hoffmann-La Roche Inc., priority 2022, published 2025):

Each compound was assayed against T1, MAGL protein (Homo sapiens, UniProt Q99685) (assay: 2-AG assay: MAGL inhibitory activity by hydrolysis of 2-arachidonoylglycerol to arachidonic acid, followed by mass spectrometry). Conditions: 8 μM 2-arachidonoylglycerol, 15 min preincubation, 30 min reaction at RT, RapidFire MS readout.
T1 sequence (Q99685 1-303): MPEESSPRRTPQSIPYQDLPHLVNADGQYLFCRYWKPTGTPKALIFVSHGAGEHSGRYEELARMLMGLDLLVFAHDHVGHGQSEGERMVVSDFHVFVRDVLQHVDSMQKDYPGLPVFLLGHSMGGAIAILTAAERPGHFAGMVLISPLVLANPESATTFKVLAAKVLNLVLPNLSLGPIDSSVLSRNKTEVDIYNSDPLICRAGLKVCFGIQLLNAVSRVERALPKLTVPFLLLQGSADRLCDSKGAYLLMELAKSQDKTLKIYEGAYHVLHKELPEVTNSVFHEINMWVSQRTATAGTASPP
Assay type: biochemical
Method in brief: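 MAGL was preincubated 15 min at RT with compound (12.5 to […], 3-fold steps) in 50 mM TRIS, 1 mM EDTA, 0.01% Tween-20, 2.5% DMSO. The reaction ran 30 min at RT with 8 μM 2-AG. Arachidonic acid was quantified by RapidFire SPE-MS/MS against a d8-arachidonic acid internal standard.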

Compound | IC50 [nM]
O=C(N1CC2(CC(c3nc(C4CC4)n[nH]3)C2)C1)N1CC2(CN(Cc3nc(C(F)(F)F)co3)C2)C1 [compound 693] | 24.5
O=C(N1CC2(CC(c3nnc(C4CC4)[nH]3)C2)C1)N1CC2(C1)CN(c1ncc(C(F)(F)F)cn1)C2 [compound 694] | 236
O=C(N1CC2(CC(c3nc(C4CC4)n[nH]3)C2)C1)N1CC2(CN(Cc3nc(CC(F)(F)F)no3)C2)C1 [compound 695] | 43.8
O=C(N1CC2(CC(c3nc(C4CC4)n[nH]3)C2)C1)N1CC2(CN(Cc3nccn3CC(F)(F)F)C2)C1 [compound 698] | 55.9
O=C(N1CC2(CC(c3nc(C4CC4)n[nH]3)C2)C1)N1CC2(CN(Cc3ncoc3C(F)(F)F)C2)C1 [compound 701] | 64.4
O=C(N1CC(C23CC(c4cc(C5CC5)n[nH]4)(C2)C3)C1)N1CC2(CC(c3nc(C4CC(F)(F)C4)n[nH]3)C2)C1 [compound 702] | 255
O=C(N1CCC(C23CC(c4nnc(C5(C(F)(F)F)CC5)o4)(C2)C3)CC1)N1CC2(CC(c3nc(C4(O)CC4)n[nH]3)C2)C1 [compound 706] | 280
O=C(N1CC2(CC(c3nc(C4CC4)n[nH]3)C2)C1)N1CC2(CN(Cc3nccn3C(F)(F)F)C2)C1 [compound 709] | 24.3
Cc1cc(C)n(C23CC(C4CN(C(=O)N5CC6(CC(c7nc(C8(O)CC8)n[nH]7)C6)C5)C4)(C2)C3)n1 [compound 712] | 497
O=C(N1CC2(CC(c3nc(C4CC4)n[nH]3)C2)C1)N1CC2(CN(Cc3cc(C(F)(F)F)ns3)C2)C1 [compound 713] | 3.42
O=C(N1CC2(CC(c3nc(C4(O)CC4)n[nH]3)C2)C1)N1CC2(CCN(Cc3ccc(S(=O)(=O)C(F)(F)F)cc3)C2)C1 [compound 714] | 30
O=C(N1CC2(CC(Cn3nccc3C(F)(F)F)C2)C1)N1CC2(CC(c3nc(C4COC4)n[nH]3)C2)C1 [compound 716] | 29.2
O=C(N1CC2(CC(c3nc(C4CC4)n[nH]3)C2)C1)N1CC2(CN(Cc3ccnn3CC(F)(F)F)C2)C1 [compound 717] | 83.8
O=C(N1CC2(CC(c3nc(C4CC4)n[nH]3)C2)C1)N1CC2(CN(Cc3ccc[nH]c3=O)C2)C1 [compound 718] | 550
N#Cc1cnn(CC2CC3(C2)CN(C(=O)N2CC4(CC(c5nc(C6(O)CC6)n[nH]5)C4)C2)C3)c1 [compound 719] | 68.9
O=C(N1CC2(CC(Cc3ccc(OC(F)(F)F)cn3)C2)C1)N1CC2(CC(c3ncn[nH]3)C2)C1 [compound 721] | 544
O=C(N1CC(C23CC(S(=O)(=O)c4ccc(C(F)(F)F)cc4)(C2)C3)C1)N1CC2(CC(c3nc(C4CC4)n[nH]3)C2)C1 [compound 722] | 57.1

Compound | IC50 [nM]
O=C(N1CC2(CC(Cn3cc(OC(F)F)ccc3=O)C2)C1)N1CC2(CC(c3nc(C4CC4)n[nH]3)C2)C1 [compound 724] | 3.8
Cc1cc(C)n(C23CC(C4CN(C(=O)N5CC6(CC(c7nc(C8CC8)n[nH]7)C6)C5)C4)(C2)C3)n1 [compound 725] | 46.6
O=C(N1CC2(CC(Cc3cnn(C(F)(F)F)c3)C2)C1)N1CC2(CC(c3nc(C4(O)CC4)n[nH]3)C2)C1 [compound 727] | 2.68
O=C(N1CC2(CC(Cc3cccc(S(=O)(=O)C(F)(F)F)c3)C2)C1)N1CC2(CC(c3nc(C4COC4)n[nH]3)C2)C1 [compound 728] | 4.19
O=C(N1CC2(CCN(Cc3nc(C(F)(F)F)cs3)CC2)C1)N1CC2(CC(c3nc(C4CC4)n[nH]3)C2)C1 [compound 732] | 6.18
O=C(N1CC2(CC(c3nc(C4CC4)n[nH]3)C2)C1)N1CC2(CN(Cc3nc(CC4CC4)no3)C2)C1 [compound 733] | 29.5
N=S(=O)(c1cccc(CC2CC3(C2)CN(C(=O)N2CC4(CC(c5ncn[nH]5)C4)C2)C3)c1)C(F)(F)F (centres unmarked) [compound 734] | 568
O=C(N1CC2(CC(Cc3ncc(Cl)cc3F)C2)C1)N1CC2(CC(c3nc(C4CC(F)(F)C4)n[nH]3)C2)C1 [compound 737] | 12
O=C(N1CC2(CC(Cc3nnc(C4(C(F)(F)F)CC4)o3)C2)C1)N1CC2(CC(c3nc(C4CC(F)(F)C4)n[nH]3)C2)C1 [compound 738] | 328
CC(F)(F)c1noc(CN2CC3(C2)CN(C(=O)N2CC4(CC(c5nc(C6CC6)n[nH]5)C4)C2)C3)n1 [compound 743] | 13.2
Cn1nc(CC2CC3(C2)CN(C(=O)N2CC4(CC(c5nc(C6COC6)n[nH]5)C4)C2)C3)cc1C(F)(F)F [compound 744] | 13.6
N=S(=O)(c1ccc(C2CN(C(=O)N3CC4(CC(c5nc(C6CC6)n[nH]5)C4)C3)C2)cc1)C1CC1 (centres unmarked) [compound 745] | 6.37
O=C(N1CC2(CC(c3nc(C4CC4)n[nH]3)C2)C1)N1CC2(CC(n3cnc(C4CC4)n3)C2)C1 [compound 746] | 8.64
O=C(N1CC2(CC(Cc3cncc(C(F)(F)F)c3)C2)C1)N1CC2(CC(c3nc(C4COC4)n[nH]3)C2)C1 [compound 748] | 37.2
O=C(N1CC2(CC(c3nc(C4CC(F)(F)C4)n[nH]3)C2)C1)N1CC2(CN(Cc3cnc(C(F)(F)F)cn3)C2)C1 [compound 750] | 445
CS(=O)(=O)c1cc(CC2CC3(C2)CN(C(=O)N2CC4(CC(c5ncn[nH]5)C4)C2)C3)ccc1C(F)(F)F [compound 753] | 1490

Results, then the compound that gave them:

IC50 [nM] | Compound
2.65 | N=S(=O)(c1ccc(C2CN(C(=O)N3CC4(CC(c5nc(C6(O)CC6)n[nH]5)C4)C3)C2)cc1)C(F)(F)F (centres unmarked) [compound 697]
0.34 | O=C(N1CC(C23CC(Nc4cnc(C(F)(F)F)cn4)(C2)C3)C1)N1CC2(CC(c3nc(C4CC4)n[nH]3)C2)C1 [compound 699]
2.56 | O=C(N1CC2(CC(c3nc(C4CC4)n[nH]3)C2)C1)N1CC2(CN(Cc3sncc3C(F)(F)F)C2)C1 [compound 700]
2.63 | O=C(N1CC2(CC(c3nc(C4CC4)n[nH]3)C2)C1)N1CC2(CCN(Cc3ccc(S(=O)(=O)C(F)(F)F)cc3)C2)C1 [compound 703]
0.3 | O=C(N1CC2(CC(Cc3nc(C(F)(F)F)cs3)C2)C1)N1CC2(CC(c3nc(C4CC4)n[nH]3)C2)C1 [compound 704]
0.57 | COc1cc(F)cc(C23CC(C4CN(C(=O)N5CC6(CC(c7nc(C8CC8)n[nH]7)C6)C5)C4)(C2)C3)c1 [compound 705]
2.44 | O=C(N1CC(C23CC(Oc4cnc(C(F)(F)F)cn4)(C2)C3)C1)N1CC2(CC(c3nc(C4CC4)n[nH]3)C2)C1 [compound 707]
2.63 | O=C(N1CC(c2cnc(N3CC[C@H](C(F)(F)F)C3)nc2)C1)N1CC2(CC(c3nc(C4CC4)n[nH]3)C2)C1 [compound 708]
2.61 | O=C(N1CC2(CC(Cc3ccc(OC(F)(F)F)nc3)C2)C1)N1CC2(CC(c3nc(C4(O)CC4)n[nH]3)C2)C1 [compound 710]
0.2 | O=C(N1CC2(CC(Cn3cc(C4(C(F)(F)F)CC4)cn3)C2)C1)N1CC2(CC(c3nc(C4CC4)n[nH]3)C2)C1 [compound 711]
0.45 | N=S(=O)(c1ccc(CC2CC3(C2)CN(C(=O)N2CC4(CC(c5nc(C6(O)CC6)n[nH]5)C4)C2)C3)c(F)c1)C(F)(F)F (centres unmarked) [compound 715]
1.37 | O=C(N1CC2(CCC(S(=O)(=O)c3ccc(C(F)(F)F)cc3)CC2)C1)N1CC2(CC(c3nc(C4CC4)n[nH]3)C2)C1 [compound 723]
0.1 | O=C(N1CC2(CC(c3nc(C4(O)CC4)n[nH]3)C2)C1)N1CC2(CC[C@@H](Cc3cccc(S(=O)(=O)C(F)(F)F)c3)C2)C1 [compound 726]
0.09 | Cn1ncc(CC2CC3(C2)CN(C(=O)N2CC4(CC(c5nc(C6CC6)n[nH]5)C4)C2)C3)c1C(F)(F)F [compound 729]
2.01 | N=S(=O)(c1ccc(OC2CC3(C2)CN(C(=O)N2CC4(CC(c5nc(C6CC6)n[nH]5)C4)C2)C3)cc1)C(F)(F)F (centres unmarked) [compound 730]
0.18 | O=C(N1CC2(CC(Cc3cncc(S(=O)(=O)C(F)(F)F)c3)C2)C1)N1CC2(CC(c3nc(C4CC4)n[nH]3)C2)C1 [compound 731]
1.65 | O=C(N1CC(C23CC(Oc4ccc(C(F)(F)F)cn4)(C2)C3)C1)N1CC2(CC(c3nc(C4CC4)n[nH]3)C2)C1 [compound 736]
1.26 | N=S(=O)(c1ccc(CC2CC3(C2)CN(C(=O)N2CC4(CC(c5nc(C6CC6)n[nH]5)C4)C2)C3)nc1)C(F)(F)F (centres unmarked) [compound 739]
1.32 | CC(C)(C)c1csc(CN2CC3(C2)CN(C(=O)N2CC4(CC(c5nc(C6CC6)n[nH]5)C4)C2)C3)n1 [compound 740]
0.15 | O=C(N1CC2(CC(c3nc(C4(O)CC4)n[nH]3)C2)C1)N1CC2(CC[C@H](Cc3cccc(S(=O)(=O)C(F)(F)F)c3)C2)C1 [compound 741]
2.18 | O=C(N1CC2(CC(Cc3cc(F)cc(C(F)(F)F)c3)C2)C1)N1CC2(CC(c3nc(C4COC4)n[nH]3)C2)C1 [compound 742]
0.09 | O=C(N1CC2(CC(Cc3n[nH]cc3C(F)(F)F)C2)C1)N1CC2(CC(c3nc(C4CC4)n[nH]3)C2)C1 [compound 747]
0.25 | N#Cc1cc(CC2CC3(C2)CN(C(=O)N2CC4(CC(c5nc(C6(O)CC6)n[nH]5)C4)C2)C3)cc(C(F)(F)F)c1 [compound 749]
0.66 | CC(C)c1cc(C(C)C)n(-c2ccc(C3CN(C(=O)N4CC5(CC(c6nc(C7(O)CC7)n[nH]6)C5)C4)C3)cc2)n1 [compound 751]
0.29 | N#Cc1ccc(CC2CC3(C2)CN(C(=O)N2CC4(CC(c5nc(C6(O)CC6)n[nH]5)C4)C2)C3)c(F)c1 [compound 752]
0.43 | O=C(N1CC2(CC(Cc3ccc(F)cc3C(F)(F)F)C2)C1)N1CC2(CC(c3nc(C4COC4)n[nH]3)C2)C1 [compound 754]
